How the values were obtained:
WT and TAAR1-KO mice = experiment: Pre-pulse inhibition (PPI) behavioral assay; type: in vivo; details: compound 65 1 mg/kg, risperidone 0.2 mg/kg i.p.
Method: Measurements were performed using startle response chambers (San Diego Instruments, San Diego, CA, USA). Each chamber is sound-isolated and contains a Plexiglass animal enclosure attached to a platform and a loudspeaker that can produce both continuous white noise and acoustic pulses of varying intensities. The animal enclosure is large enough for the animal to turn around and make other movements to reduce restraint stress. Mouse startle responses to acoustic stimuli are transformed by a piezoelectric transducer under the platform into an analog signal. The transducers were calibrated before each experiment using a standardization unit (San Diego Instruments, San Diego, CA, USA), and the speakers were calibrated using a Type 2670 Microphone Preamplifier, a Type 4230 Sound Level Calibrator, and a Type 2610 Measuring Amplifier (Brüel & Kjær, Nærum, Denmark). To habituate the mice to the chambers, they were placed in the enclosure for 5 min, with 65-dB background white noise, on three different days before the start of experiments. PPI measurements were then conducted on each mouse on four occasions separated by 96 hours. The first occasion was a mock test session where all mice were injected with vehicle, serving to reduce the effect of novelty on subsequent sessions. The next three sessions were true test sessions with injection of either compound 65, risperidone, or vehicle. The R package agricolae was used to generate a randomized block design, randomizing treatment order across sex, genotype, and test session.
Animals were brought to the testing room for habituation 60 min before the starting of tests. Thirty minutes before PPI measurements, mice were injected with either compound 65 (1 mg/kg), risperidone (0.2 mg/kg), or vehicle intraperitoneally. Each test session started with a 5-min background noise (65-dB white noise) habituation period. The background noise continued throughout the test session. The habituation period was followed by four blocks of trials, with the first and last blocks consisting of five pulse-only trials (40-ms, 120-dB pulse). During block 2, five trial types were presented five times each in a pseudo-randomized order. The trial types included pulse only, no stimulus (NOSTIM), and three different pre-pulse trials in which 20 ms pre-pulses of different intensities (68, 71, or 77 dB) preceded the startle pulse (120 dB) by a 100-ms interval. Block 3 contained the same numbers and types of trials as block 2, but in a different pseudorandom order. […] PPI data are shown as PPI%, which was calculated as [1 − (pre-pulse trials/startle-only trials)] × 100. Mean PPI was calculated by adding the average PPI% for all pre-pulse intensities (3, 6, and 12 dB) and dividing it by the number (i.e., 3) of pre-pulse intensities.

D2 receptor = target: T1, D2 receptor (Homo sapiens, UniProt P14416); experiment: cell-based; type: cell-based
T1 construct: TANGO fusion module (own knowledge, Kroeze et al.: C-terminal V2 tail, TEV site and tTA); 1000000068; host or cells: HTLA (HEK293-derived)
Method: (§1) Assessment of receptor activation by compounds at all human aminergic receptors were carried out using a modified version of the PRESTO-TANGO method. […] The plate was spun down, and 5 μl of a 1:25 dilution (in DPBS) of polyethylenimine (PEI) derivative (Transporter 5, Polysciences) was added (1:4 cDNA to PEI ratio) and incubated for 20 min at room temperature (RT). […] Luminescence signal was detected using a plate-reader (SPARK, Tecan) with 100-ms integration time and a 100-ms delay between well reads.

5-HT1D receptor = target: T2, 5-HT1D receptor (Homo sapiens, UniProt P28221); experiment: PRESTO-TANGO β-arrestin recruitment; type: cell-based
T2 construct: TANGO fusion module (own knowledge, Kroeze et al.: C-terminal V2 tail, TEV site and tTA); 1000000068; host or cells: HTLA (HEK293-derived)
Method: as §1

α2A receptor = target: T3, α2A receptor (Homo sapiens, UniProt P08913); experiment: PRESTO-TANGO β-arrestin recruitment; type: cell-based
T3 construct: TANGO fusion module (own knowledge, Kroeze et al.: C-terminal V2 tail, TEV site and tTA); 1000000068; host or cells: HTLA (HEK293-derived)
T3 sequence (P08913 1-465): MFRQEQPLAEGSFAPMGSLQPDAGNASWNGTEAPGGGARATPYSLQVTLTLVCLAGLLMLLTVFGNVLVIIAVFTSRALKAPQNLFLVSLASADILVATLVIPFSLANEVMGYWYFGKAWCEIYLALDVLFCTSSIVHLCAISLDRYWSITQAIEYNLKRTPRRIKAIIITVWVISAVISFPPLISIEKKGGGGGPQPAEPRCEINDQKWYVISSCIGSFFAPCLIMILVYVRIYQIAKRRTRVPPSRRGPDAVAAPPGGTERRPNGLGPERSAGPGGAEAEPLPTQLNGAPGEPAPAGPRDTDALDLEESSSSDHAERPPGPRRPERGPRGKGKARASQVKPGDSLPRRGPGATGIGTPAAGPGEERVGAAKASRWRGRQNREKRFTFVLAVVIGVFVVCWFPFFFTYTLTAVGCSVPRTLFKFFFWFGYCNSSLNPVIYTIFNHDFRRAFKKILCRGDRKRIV

[1] = In vivo pharmacokinetics, plasma and brain; set-up: species or system mice
Method: Brains were collected and snap-frozen. Blood was sampled from the cervical vein upon decapitation in Eppendorf tubes containing 50 μl of 0.5 M EDTA and immediately centrifuged for 10 min at 3000g and 4°C. Isolated plasma was then transferred into clean polypropylene tubes. All samples were stored at −20°C before analysis.
Brains were weighed and homogenized 1:3 (w/v) in PBS using a Minilys Bead Homogenizer (Bertin Instruments). […] Samples were precipitated with acetonitrile (1:4) containing warfarin as analytical internal standard. The supernatants were injected into the LC-MS/MS system consisting of a TQ-S micro mass spectrometer coupled to an Acquity UPLC (Waters Corp, MA, USA). […] The obtained concentrations of brain homogenate samples were multiplied by 4 to account for the dilution during preparation of the homogenate. Pharmacokinetic parameters were determined from the experimental data by applying non-compartmental analysis using Microsoft Excel spreadsheet. The brain-to-plasma partition coefficient (Kp,brain) was calculated as the ratio of the area under the concentration–time curves (AUC) in brain versus plasma (AUCbrain/AUCplasma).

H1 receptor = target: T4, H1 receptor (Homo sapiens, UniProt P35367); experiment: PRESTO-TANGO β-arrestin recruitment; type: cell-based; details: concentration-response curves (fig. S10)
T4 construct: TANGO fusion module (own knowledge, Kroeze et al.: C-terminal V2 tail, TEV site and tTA); 1000000068; host or cells: HTLA (HEK293-derived)
T4 sequence (P35367 whole entry, the tested form may be a part): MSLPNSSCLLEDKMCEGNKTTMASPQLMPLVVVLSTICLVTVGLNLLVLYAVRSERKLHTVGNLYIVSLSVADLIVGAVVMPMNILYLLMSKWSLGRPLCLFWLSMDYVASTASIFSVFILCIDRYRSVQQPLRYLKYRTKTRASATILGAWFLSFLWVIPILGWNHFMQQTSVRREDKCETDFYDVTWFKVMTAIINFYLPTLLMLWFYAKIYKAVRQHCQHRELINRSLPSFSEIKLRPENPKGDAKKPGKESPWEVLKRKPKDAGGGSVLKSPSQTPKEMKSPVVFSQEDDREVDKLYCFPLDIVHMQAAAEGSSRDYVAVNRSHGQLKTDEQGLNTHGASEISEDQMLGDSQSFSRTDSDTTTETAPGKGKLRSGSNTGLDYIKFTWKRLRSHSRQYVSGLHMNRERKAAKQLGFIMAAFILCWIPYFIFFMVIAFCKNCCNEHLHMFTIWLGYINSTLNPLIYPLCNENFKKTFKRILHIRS

T1 sequence (P14416 whole entry, the tested form may be a part): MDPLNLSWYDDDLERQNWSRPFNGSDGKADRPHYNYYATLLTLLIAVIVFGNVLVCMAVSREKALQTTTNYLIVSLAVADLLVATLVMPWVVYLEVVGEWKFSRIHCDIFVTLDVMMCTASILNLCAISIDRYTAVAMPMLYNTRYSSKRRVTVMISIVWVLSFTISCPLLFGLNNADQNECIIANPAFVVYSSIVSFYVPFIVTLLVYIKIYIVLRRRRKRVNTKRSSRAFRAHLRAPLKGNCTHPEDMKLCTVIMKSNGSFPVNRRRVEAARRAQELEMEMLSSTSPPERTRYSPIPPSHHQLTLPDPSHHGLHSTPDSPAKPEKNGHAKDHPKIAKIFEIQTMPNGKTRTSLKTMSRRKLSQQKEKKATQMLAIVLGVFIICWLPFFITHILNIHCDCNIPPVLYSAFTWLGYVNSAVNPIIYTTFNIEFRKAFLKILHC
T2 sequence (P28221 whole entry, the tested form may be a part): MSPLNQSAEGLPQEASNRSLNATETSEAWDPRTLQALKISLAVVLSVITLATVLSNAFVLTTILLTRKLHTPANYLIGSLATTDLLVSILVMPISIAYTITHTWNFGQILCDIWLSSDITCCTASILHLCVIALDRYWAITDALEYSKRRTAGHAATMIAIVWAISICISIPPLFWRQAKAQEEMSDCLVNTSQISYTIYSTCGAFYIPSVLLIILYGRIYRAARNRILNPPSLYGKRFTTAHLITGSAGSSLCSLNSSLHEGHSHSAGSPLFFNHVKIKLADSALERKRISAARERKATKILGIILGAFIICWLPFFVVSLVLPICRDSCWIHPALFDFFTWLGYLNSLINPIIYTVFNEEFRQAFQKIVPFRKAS

In the case of `CC1=C(c2ccco2)CNCC1` [Compound 65], the “effect on PPI” value (WT and TAAR1-KO mice; TAAR1-KO mice) is reported as “did not observe any change in PPI”, the “effect on PPI” value (WT and TAAR1-KO mice; WT mice) is reported as “elevated PPI at both 3- and 6-dB pre-pulse levels” and the EC50 (D2 receptor; concentration-response curves) is reported as > 1000 nM. The Emax (D2 receptor; concentration-response curves) was 59%, the “agonism at the D2 receptor” value (D2 receptor; panel screen) was “agonism” and the EC50 (5-HT1D receptor) was > 1000 nM. The Emax (5-HT1D receptor) was 75%, the “agonism at the 5-HT1D receptor” value (5-HT1D receptor; panel screen) was “agonism” and the EC50 (α2A receptor) was 1000 nM. The Emax (α2A receptor; concentration-response curves) was 110%, the “agonism at the α2A receptor” value (α2A receptor; panel screen) was “agonism” and the Clearance ([1]; after intraperitoneal administration, 1 mg/kg, mice, estimated) was 225 ml/min per kg. The “brain concentration by 4 hours” value ([1]; below lower limit of quantification, mice, i.p. 1 mg/kg) was < 40 pmol/g, the Kp ([1]; male, C57BL/6, mouse, brain and plasma, intraperitoneal, 1 mg/kg, total concentrations, AUCbrain/AUCplasma, read-out: brain-to-plasma partition coefficient Kp,brain) was 7.9 and the half-life ([1]; male, C57BL/6, mouse, ip, plasma, mice, intraperitoneal 1 mg/kg) was 17 min. For the same compound, the concentration at 4 h ([1]; male, C57BL/6, mouse, plasma, ip, below lower limit of quantification, mice, i.p. 1 mg/kg) was < 5 nM, the Cmax ([1]; male, C57BL/6, mouse, plasma, ip, mice, intraperitoneal 1 mg/kg, read-out: maximum plasma concentration (Cmax)) was 850 ± 172 nM and the Tmax ([1]; male, C57BL/6, mouse, plasma, ip, mice, intraperitoneal 1 mg/kg, read-out: time to maximum plasma concentration) was ≤ 5 min. The “maximum concentration in brain” value ([1]; mice, intraperitoneal 1 mg/kg) was 4707 ± 766 pmol/g, the “time to maximum brain concentration” value ([1]; mice, intraperitoneal 1 mg/kg) was ≤ 5 min and the “volume of distribution (V)” value ([1]; mice, intraperitoneal 1 mg/kg) was 6.3 L/kg. The “agonism at the H1 receptor” value (H1 receptor) was “lacked agonism”.

— publication PMC11305387, “AlphaFold accelerated discovery of psychotropic agonists targeting the trace amine–associated receptor 1” (Science Advances, 2024)
